Among the data in patent US9856279B2 (AGIOS PHARMACEUTICALS, INC, priority 2011, dated 2018) are IC50 values, retold here.

The IC50 is the midpoint of a concentration-inhibition curve.

One test concerns HT1080 cells. Kind of test: Cellular assay for IDH1m inhibitors: inhibition of 2-HG production (LC-MS, 48 hours) in HT1080 cells. Type of test: cell-based. The conditions noted are these: Homo sapiens, HT-1080; inhibition of 2-HG production, HT1080 cells; read-out: HT1080 IC50. The method, boiled down:
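The read-out is 2-HG in culture medium, measured by LC-MS after 48 h of compound exposure (0.2% DMSO) in cells plated overnight at 5000 per well in DMEM/10% FBS. IC50 is 50% reduction relative to DMSO wells. Luminescent viability (Cell Titer Glo) followed at 72 h.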

In a further test the test system is U87MG cells. Kind of test: Cellular assay for IDH1m inhibitors: inhibition of 2-HG production (LC-MS, 48 hours) in U87MG cells. Format: cell-based. The conditions noted are these: Homo sapiens, U-87 MG, inhibition of 2-HG production, U87R132H cells; read-out: U87R132H IC50. As to the method:
Cells (e.g., HT1080 or U87MG) and are grown in T125 flasks in DMEM containing 10% FBS, 1× penicillin/streptomycin and 500 ug/mL G418. They are harvested by trypsin and seeded into 96 well white bottom plates at a density of 5000 cell/well in 100 ul/well in DMEM with 10% FBS. No cells are plates in columns 1 and 12. Cells are incubated overnight at 37° C. in 5% CO2. The next day compounds are made up at 2× concentration and 100 ul are added to each cell well. The final concentration of DMSO is 0.2% and the DMSO control wells are plated in row G. The plates are then placed in the incubator for 48 hours. At 48 hours, 100 μl of media is removed from each well and analyzed by LC-MS for 2-HG concentrations. The cell plate is placed back in the incubator for another 24 hours. At 72 hours post compound addition, 10 mL/plate of Promega Cell Titer Glo reagent is thawed and mixed. The cell plate is removed from the incubator and allowed to equilibrate to room temperature. Then 100 ul of reagent is added to each well of media. The cell plate is then placed on an orbital shaker for 10 minutes and then allowed to sit at room temperature for 20 minutes. The plate is then read for luminescence with an integration time of 500 ms.
The IC50 for inhibition of 2-HG production (concentration of test compound to reduce 2HG production by 50% compared to control) in these two cell lines for various compounds of formula I is set forth in Table 4 above.

The target of the next test is IDH1 R132H (Homo sapiens, UniProt O75874, R132H). The test is described as follows: Assay for IDH1 R132H inhibitors (NADPH/aKG, resazurin detection). Type of test: biochemical. The conditions noted are these: enzyme assay of Example 12; read-out: IDH1R132H IC50. In a few lines:
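Read-out is resorufin fluorescence (Ex544/Em590) 5 min after adding a 30 μM resazurin detection mix. Before that, mutant enzyme (0.2 μg/ml in its mix) ran 50 min at room temperature with compound, 8 uM NADPH and 2 mM aKG (mix levels) in Tris pH 7.5 with NaCl, MgCl2, BSA.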

Bounds are passed on as bounds.

Chain of IDH1 R132H (O75874 whole entry R132H): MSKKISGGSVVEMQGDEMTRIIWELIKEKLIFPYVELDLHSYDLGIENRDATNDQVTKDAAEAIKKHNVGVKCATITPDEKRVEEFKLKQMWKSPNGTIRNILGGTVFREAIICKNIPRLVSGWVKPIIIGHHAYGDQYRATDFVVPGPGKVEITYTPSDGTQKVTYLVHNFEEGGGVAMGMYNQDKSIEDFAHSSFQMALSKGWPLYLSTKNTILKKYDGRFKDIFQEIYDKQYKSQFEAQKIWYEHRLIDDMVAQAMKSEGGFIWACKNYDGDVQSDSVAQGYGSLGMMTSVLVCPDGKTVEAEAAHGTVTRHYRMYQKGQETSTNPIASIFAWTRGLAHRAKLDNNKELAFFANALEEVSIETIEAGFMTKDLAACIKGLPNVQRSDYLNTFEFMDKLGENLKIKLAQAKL

Turning to `CCS(=O)(=O)N1CCN(c2cc(C#N)c(N3CCN(C(=O)CCOC)[C@H](C)C3)nc2C2CC2)CC1` [Compound 377, (R)-6-cyclopropyl-5-(4-(ethylsulfonyl)piperazin-1-yl)-2-(4-(3-methoxypropanoyl)-3-methylpiperazin-1-yl)nicotinonitrile], the results for the IC50 in the test on HT1080 cells, in the test with U87MG cells and on IDH1 R132H were 500 to 1000 nM, under 500 nM and under 500 nM, respectively.

`COCCC(=O)N1CCN(c2nc(C3CC3)c(-c3ccnc4ccccc34)cc2C#N)C[C@H]1C` [Compound 315, (R)-6-cyclopropyl-2-(4-(3-methoxypropanoyl)-3-methylpiperazin-1-yl)-5-(quinolin-4-yl)nicotinonitrile]: the values for the IC50 in the test on HT1080 cells, with U87MG cells and at IDH1 R132H were under 500 nM, 500 to 1000 nM and under 500 nM, respectively.

In the case of `C=CC(=O)N1CCC=C(c2c(C3CC3)nc(N3CCN(C(=O)CCOC)[C@H](C4CC4)C3)c(C#N)c2C)C1` [Compound 745, (R)-5-(1-acryloyl-1,2,5,6-tetrahydropyridin-3-yl)-6-cyclopropyl-2-(3-cyclopropyl-4-(3-methoxypropanoyl)piperazin-1-yl)-4-methylnicotinonitrile], the IC50 with HT1080 cells, in the test with U87MG cells and on IDH1 R132H was under 500 nM each time.

Turning to `C=CC(=O)N1CCC=C(c2c(C3CC3)nc(N3CCN(C(=O)CCO)[C@H](C(C)C)C3)c(C#N)c2C)C1` [Compound 762, (R)-1′-acryloyl-2-cyclopropyl-6-(4-(3-hydroxypropanoyl)-3-isopropylpiperazin-1-yl)-4-methyl-1′,2′,5′,6′-tetrahydro-[3,3′-bipyridine]-5-carbonitrile], the 50% inhibitory concentration (IC50) in the test with HT1080 cells, in the test with U87MG cells and on IDH1 R132H was under 500 nM in each case.

With `C=Cc1cc(-c2c(C3CC3)nc(N3CCN(C(=O)C[C@H]4CCO4)[C@H](C4CC4)C3)c(C#N)c2C)ccn1` [Compound 760, 2-cyclopropyl-6-((R)-3-cyclopropyl-4-(2-((R)-oxetan-2-yl)acetyl)piperazin-1-yl)-4-methyl-2′-vinyl-3,4′-bipyridine-5-carbonitrile], the half-inhibitory concentration (IC50) with HT1080 cells, in the test with U87MG cells and at IDH1 R132H was under 500 nM throughout.

For the compound `COCCC(=O)N1CCN(c2nc(C3CC3)c(Nc3cc(C#N)ccn3)cc2C#N)C[C@H]1C1CC1` [Compound 792, (R)-5-(4-cyanopyridin-2-ylamino)-6-cyclopropyl-2-(3-cyclopropyl-4-(3-methoxypropanoyl)piperazin-1-yl)nicotinonitrile], the concentration for half-maximal inhibition (IC50) was 1000 to 10000 nM with HT1080 cells, 1000 to 10000 nM in the test with U87MG cells and under 500 nM at IDH1 R132H.

Turning to `C=Cc1cc(Nc2cc(C#N)c(N3CCN(C(=O)CCOC)[C@H](C)C3)nc2C2CC2)c2cccnc2n1` [Compound 705, (R)-6-cyclopropyl-2-(4-(3-methoxypropanoyl)-3-methylpiperazin-1-yl)-5-(2-vinyl-1,8-naphthyridin-4-ylamino)nicotinonitrile], the half-maximal inhibitory concentration (IC50) with HT1080 cells, with U87MG cells and at IDH1 R132H was under 500 nM each time.

For the compound `C=Cc1cc(-c2cc(C#N)c(N3CCN(C(=O)CCO)[C@H](C4CC4)C3)nc2C2CC2)c2cccnc2n1` [Compound 691], the half-inhibitory concentration (IC50) with U87MG cells is under 500 nM.

For `C=Cc1cc(-c2c(C3CC3)nc(N3CCN(C(=O)CCO)[C@H](C(C)C)C3)c(C#N)c2C)cnn1` [Compound 773, (R)-6-cyclopropyl-2-(4-(3-hydroxypropanoyl)-3-isopropylpiperazin-1-yl)-4-methyl-5-(6-vinylpyridazin-4-yl)nicotinonitrile], the IC50 with U87MG cells and at IDH1 R132H was under 500 nM throughout.

Consider `N#Cc1cc(Nc2cc(C#N)c(N3CCN(C(=O)C[C@H]4CCO4)[C@H](C4CC4)C3)nc2C2CC2)ccn1` [Compound 783, 4-(5-cyano-2-cyclopropyl-6-((R)-3-cyclopropyl-4-(2-((R)-oxetan-2-yl)acetyl)piperazin-1-yl)pyridin-3-ylamino)picolinonitrile], for which the IC50 in the test on HT1080 cells and in the test with U87MG cells was under 500 nM in each case.

Consider `N#Cc1cc(Cc2ccnc(Cl)c2)c(C2CC2)nc1N1CCN(C(=O)CCO)[C@H](C2CC2)C1` [Compound 708, (R)-5-((2-chloropyridin-4-yl)methyl)-6-cyclopropyl-2-(3-cyclopropyl-4-(3-hydroxypropanoyl)piperazin-1-yl)nicotinonitrile], for which the IC50 is 1000 to 10000 nM in the test on U87MG cells and under 500 nM on IDH1 R132H.

With `C=Cc1cc(-c2cc(C#N)c(N3CCN(C(=O)COC)[C@H](C4CC4)C3)nc2C2CC2)nc(N)n1` [Compound 759, (R)-5-(2-amino-6-vinylpyrimidin-4-yl)-6-cyclopropyl-2-(3-cyclopropyl-4-(2-methoxyacetyl)piperazin-1-yl)nicotinonitrile], the half-maximal inhibitory concentration (IC50) in the test on U87MG cells and at IDH1 R132H was under 500 nM in each case.

With `C=Cc1ncc2c(-c3cc(C#N)c(N4CCN(C(=O)CCO)[C@H](C(C)C)C4)nc3C3CC3)cccc2n1` [Compound 650, (R)-6-cyclopropyl-2-(4-(3-hydroxypropanoyl)-3-isopropylpiperazin-1-yl)-5-(2-vinylquinazolin-5-yl)nicotinonitrile], the concentration for half-maximal inhibition (IC50) in the test on U87MG cells and at IDH1 R132H was under 500 nM each time.

As for `C=Cc1cc(-c2cc(C#N)c(N3CCN(C(=O)C4CC4)[C@H](C4CC4)C3)nc2C2CC2)nc(N)n1` [Compound 700, (R)-5-(2-amino-6-vinylpyrimidin-4-yl)-2-(4-(cyclopropanecarbonyl)-3-cyclopropylpiperazin-1-yl)-6-cyclopropylnicotinonitrile], the half-maximal inhibitory concentration (IC50) in the test with HT1080 cells and in the test on U87MG cells was under 500 nM each time.

As to `CCO[C@H]1C[C@@H]1C(=O)N1CCN(c2nc(C3CC3)c(-c3cccc4cnccc34)cc2C#N)C[C@H]1C1CC1` [Compound 518, 6-cyclopropyl-2-((R)-3-cyclopropyl-4-((1S,2S)-2-ethoxycyclopropanecarbonyl)piperazin-1-yl)-5-(isoquinolin-5-yl)nicotinonitrile], the IC50 in the test on U87MG cells and at IDH1 R132H was under 500 nM in each case.

Turning to `C=Cc1ccnc(Nc2cc(C#N)c(N3CCN(C(=O)CCOC)[C@H](C(C)C)C3)nc2C2CC2)c1` [Compound 758, (R)-6-cyclopropyl-2-(3-isopropyl-4-(3-methoxypropanoyl)piperazin-1-yl)-5-((4-vinylpyridin-2-yl)amino)nicotinonitrile], the IC50 in the test on U87MG cells and at IDH1 R132H was under 500 nM in each case.

On to `N#Cc1cc(-c2cnnc(OS(=O)(=O)C(F)(F)F)c2)c(C2CC2)nc1N1CCN(C(=O)C2CC2)[C@H](C2CC2)C1` [Compound 687, (R)-5-(5-cyano-6-(4-(cyclopropanecarbonyl)-3-cyclopropylpiperazin-1-yl)-2-cyclopropylpyridin-3-yl)pyridazin-3-yl trifluoromethanesulfonate], for which the 50% inhibitory concentration (IC50) with U87MG cells is 500 to 1000 nM; on IDH1 R132H it was under 500 nM.

For `C=Cc1ccnc(Nc2cc(C#N)c(N3CCN(C(=O)CCO)[C@H](C(C)C)C3)nc2C2CC2)c1` [Compound 757, (R)-6-cyclopropyl-2-(4-(3-hydroxypropanoyl)-3-isopropylpiperazin-1-yl)-5-((4-vinylpyridin-2-yl)amino)nicotinonitrile], the half-maximal inhibitory concentration (IC50) in the test with U87MG cells and at IDH1 R132H was under 500 nM throughout.

With `C=Cc1ncc2c(-c3cc(C#N)c(N4CCN(C(=O)CCO)[C@H](C5CC5)C4)nc3C3CC3)cccc2n1` [Compound 651, (R)-6-cyclopropyl-2-(3-cyclopropyl-4-(3-hydroxypropanoyl)piperazin-1-yl)-5-(2-vinylquinazolin-5-yl)nicotinonitrile], the half-maximal inhibitory concentration (IC50) in the test with U87MG cells and on IDH1 R132H was under 500 nM each time.

As to `C=Cc1cc(-c2cc(C#N)c(N3CCN(C(=O)CCOC)[C@H](C4CC4)C3)nc2C2CC2)c2ccncc2n1` [Compound 658, (R)-6-cyclopropyl-2-(3-cyclopropyl-4-(3-methoxypropanoyl)piperazin-1-yl)-5-(2-vinyl-1,7-naphthyridin-4-yl)nicotinonitrile], the half-inhibitory concentration (IC50) with U87MG cells and on IDH1 R132H was under 500 nM in each case.

Consider `Cc1cc(-c2cc(C#N)c(N3CCN(C(=O)C4CC4)[C@H](C4CC4)C3)nc2C2CC2)c2cccnc2n1` [Compound 557, (R)-2-(4-(cyclopropanecarbonyl)-3-cyclopropylpiperazin-1-yl)-6-cyclopropyl-5-(2-methyl-1,8-naphthyridin-4-yl)nicotinonitrile], for which the results for the IC50 with HT1080 cells and at IDH1 R132H were 500 to 1000 nM and under 500 nM, respectively.
